Like-named read-outs stand apart in the source and are kept apart here. Where no end group is shown, it is not given here.
How the values were obtained:
E. coli (ATCC 25922) [1] = assay type: cell-based, Escherichia coli
Protocol: (§1) Experiments were conducted in triplicate.
(§2) The MICs against E. coli (ATCC 25922) for cc-CATH3, ML-CATH, and PD-CATH in 150 mM NaCl and different pH (pH 5, 6, and 7) that were adjusted using acetic acid (Sigma Aldrich) were determined as described above. For serum stability assay, each AMP at four different concentrations was dissolved in 50% (v/v) FBS (Hyclone™) and incubated at 37 °C for 0, 60, and 120 min, respectively. As described in a previous study, ΔHg-CATH was used as a control for serum sensitivity. The antimicrobial activity of cc-CATH3, ML-CATH, and PD-CATH against E. coli was assessed for each condition as above. All experiments were conducted in triplicate.

[2] = test system: all bacterial strains in the panel and field isolates from milk; assay type: cell-based; details: against all bacterial strains in the panel and field isolates from milk
Protocol: (§3) The standard bacterial strains used for antimicrobial activity assays include Staphylococcus aureus ATCC (American Type Culture Collection, Manassas, VA, USA) 6538, Bacillus cereus ATCC 10876, Enterococcus faecalis ATCC 29212, Streptococcus agalactiae ATCC 27956, Streptococcus dysgalactiae ATCC 27957, Streptococcus equi subsp. zooepidemicus ATCC 43079, Escherichia coli ATCC 25922, and Pseudomonas aeruginosa ATCC 27853. Most bacterial strains were cultured in LB medium except for E. faecalis and streptococci, which were cultivated in brain heart infusion (BHI) broth (BD Bioscience).
(§4) All plates were cultivated aerobically.
as §1

[3] = test system: eight standard bacterial strains; assay type: cell-based; details: all eight standard strains; range stated for the three peptides
Protocol: as §3, with “[…]” for “agalactiae ATCC”, “Bioscience). […] Experiments were conducted in triplicate.” for “Bioscience).”

[4] = test system: Streptococcus dysgalactiae ATCC 27957; test: microbe, parasite or virus in culture; assay type: cell-based; details: ATCC 27957, 6 h
Protocol: as §3, with “[…]” for “agalactiae ATCC”, “Bioscience). […] Experiments were conducted in triplicate.” for “Bioscience).”

[5] = test system: Bacillus cereus ATCC 10876; test: microbe, parasite or virus in culture; assay type: cell-based; details: ATCC 10876, 6 h
Protocol: as §3, with “[…]” for “agalactiae ATCC”, “Bioscience). […] Experiments were conducted in triplicate.” for “Bioscience).”

[6] = test system: Streptococcus agalactiae ATCC 27956; test: microbe, parasite or virus in culture; assay type: cell-based; details: ATCC 27956, 6 h
Protocol: as §3, with “[…]” for “agalactiae ATCC”, “Bioscience). […] Experiments were conducted in triplicate.” for “Bioscience).”

[7] = test system: Staphylococcus aureus ATCC 6538; test: microbe, parasite or virus in culture; assay type: cell-based; details: ATCC 6538, 6 h
Protocol: as §3, with “[…]” for “agalactiae ATCC”, “Bioscience). […] Experiments were conducted in triplicate.” for “Bioscience).”

[8] = test system: Streptococcus equi subsp. zooepidemicus ATCC 43079; test: microbe, parasite or virus in culture; assay type: cell-based; details: ATCC 43079, 6 h
Protocol: as §3, with “[…]” for “agalactiae ATCC”, “Bioscience). […] Experiments were conducted in triplicate.” for “Bioscience).”

[9] = test system: Enterococcus faecalis ATCC 29212; test: microbe, parasite or virus in culture; assay type: cell-based; details: ATCC 29212, 6 h
Protocol: as §3, with “[…]” for “agalactiae ATCC”, “Bioscience). […] Experiments were conducted in triplicate.” for “Bioscience).”

[10] = test system: Pseudomonas aeruginosa ATCC 27853; test: microbe, parasite or virus in culture; assay type: cell-based; details: ATCC 27853, 6 h
Protocol: as §3, with “[…]” for “agalactiae ATCC”, “Bioscience). […] Experiments were conducted in triplicate.” for “Bioscience).”

PK15 cells [11] = test: Cytotoxicity, WST-1 cell viability; details: 24 h, 37 °C, repeated three times
Protocol: (§5) Human keratinocytes (HaCaT) and pig kidney fibroblast cells (PK15, ATCC CCL-33) were cultured in Dulbecco’s modified Eagle’s medium (DMEM; Hyclone™, Logan, UT, USA) and supplemented with 10% foetal bovine serum (FBS; Hyclone™, Logan, UT, USA), 1% penicillin–streptomycin (Hyclone™) at 37 °C, and 5% CO2 up to 80% confluence. Cell substratum adhesion was disrupted using Accutase (Innovative Cell Technologies, San Diego, CA, USA). A total of 4 × 10^4 cells were incubated for 24 h at 37 °C and 5% CO2 in each well of a 96-well plate containing 64 and 160 µg/mL of each peptide.
(§6) A positive control for complete cell lysis was established using Triton-X100 (1%), and untreated cells were used as the negative control. After incubation, the medium was removed from the wells and replaced with 10 µL of colouring solution (Cell Proliferation Reagent WST-1™) and 100 µL of DMEM (Hyclone™), per the manufacturer’s protocol. Each well absorbance was measured at 440 nm (peptide-treated and control) and 650 nm (background). These measurements were recorded as the optical density (OD) using a microplate reader (xMark™ spectrophotometer; Bio-Rad, CA, USA). Cell viability was calculated using the following equation: CellViability(%)=100×(ODpeptide-ODbackground)/(ODnegative-ODbackground)
(§7) All experiments were performed in triplicate.

E. coli (ATCC 25922) [12] = assay type: in vitro ADME, Escherichia coli
Protocol: as §2
Figure 2 Changes in the antibacterial activity of cc-CATH3, ML-CATH, and PD-CATH after incubation with naïve serum. cc-CATH3, ML-CATH, and PD-CATH peptides were incubated in 50% (v/v) FBS each for 0, 60, and 120 min before applying to antimicrobial activity assay against E. coli (ATCC 25922). The antimicrobial activity was determined by measuring bacterial growth at OD 450 nm. The X and Y axes indicate peptide concentration and absorbance at 450 nm, respectively. Samples containing 50% FBS in the absence of the peptides indicate a control for bacterial growth without AMP treatments. The antimicrobial activity of cc-CATH3 (A), ML-CATH (B), and PD-CATH (C) after the treatment of FBS-incubated AMPs was shown.

HaCaT cells [13] = test: Cytotoxicity, WST-1 cell viability; details: 24 h, 37 °C, repeated three times
Protocol: as §5, §6, §7

[14] = test system: Staphylococcus chromogenes; test: microbe, parasite or virus in culture; assay type: cell-based; details: 6 h
Protocol: as §4, §1

[15] = test system: Glutamicibacter halophytocola; test: microbe, parasite or virus in culture; assay type: cell-based; details: 6 h
Protocol: as §4, §1

Corynebacterium simulans = test: microbe, parasite or virus in culture; assay type: cell-based; details: 6 h
Protocol: as §4, §1

Streptococcus uberis = test: microbe, parasite or virus in culture; assay type: cell-based; details: 6 h
Protocol: as §4, §1

[16] = test system: Staphylococcus epidermidis; test: microbe, parasite or virus in culture; assay type: cell-based; details: 6 h
Protocol: as §4, §1

Staphylococcus xylosus = test: microbe, parasite or virus in culture; assay type: cell-based; details: 6 h
Protocol: as §4, §1

[17] = test system: field isolates from milk with high SCCs; details: all field isolates except A. hydrophila; range stated for the three peptides
Protocol: The minimum inhibitory concentration (MIC) was determined by following the manufacturer’s protocol and Clinical and Laboratory Standards Institute (CLSI) guidelines (2018) using a colourimetric method specified by the Microbial Viability Assay Kit-WST (Dojindo, Kumamoto, Japan). Four colonies of each bacterium were inoculated into 5 mL of LB medium and incubated at 37 °C for 4–6 h. The cells were then washed twice with sterile saline (0.9% NaCl) and seeded into a single well of a 96-well plate at a density of 1.5 × 10^5 cells/well, adjusting by McFarland standard 0.5. Subsequently, 180 µL/well of fresh MH broth (BD Bioscience) was added to the plate. Ampicillin, chloramphenicol, and gentamicin sulfate were used as controls for antimicrobial activity.
Different concentrations of each peptide and reference antibiotics (up to 40 µg/mL) were serially diluted in 10 µL of MH broth and added to each well. The plate was incubated at 37 °C for 6 h, using BHI broth to culture slow-growing fastidious strains, including E. faecalis, A. hydrophila, C. simulans, G. halophytocola, and streptococci. Cation-adjusted Mueller Hinton II broth (CAMHB) was employed to cultivate P. aeruginosa. Afterwards, 10 µL of the colouring reagent was added, and cells were incubated at 37 °C for 2 h. UV absorbance was measured for each well at 450 nm using a microplate spectrophotometer (xMark spectrophotometer; Bio-Rad, Hercules, CA, USA). The MIC values were determined when the absorbance difference between treatments and blanks (media and colouring reagent only) decreased to < 0.05. Experiments were conducted in triplicate.

bovine erythrocytes = test: Haemolytic activity; assay type: cell-based; details: OD 410 nm, repeated three times
Protocol: The experimental procedures were conducted in accordance with the guidelines approved by the Institutional Animal Care and Use Committee (IACUC) of Konkuk University, Seoul, Korea, and bovine blood was collected from a cow at a local farm using a BD Vacutainer® Sodium Heparin (BD Bioscience) to analyse haemolytic activity. Plasma was removed from the whole blood by centrifugation. Erythrocytes were washed thrice with phosphate-buffered saline (PBS, pH 7.4) and resuspended in PBS at a concentration of 2% (v/v). Subsequently, 100 µL of the erythrocyte suspension was added to each well of a 96-well microtiter plate. The plate contained an equal volume of the peptides in PBS with different concentrations of 10, 20, 40, 80, and 160 μg/mL. Triton-X 100 (1%) and PBS were used as positive and negative controls, respectively. Plates were incubated at 37 °C for 1 h. The release of haemoglobin into the supernatant was monitored by measuring the change in OD at 410 nm using a microplate reader (xMark™ spectrophotometer; Bio-Rad). Results from three independent experiments were pooled. Hemolysis was calculated using the formula: HemolyticPercentage(%)=100×(ODpeptide-ODnegative)/(ODpositive-ODnegative)
All experiments were carried out in triplicate.

Aeromonas hydrophila = test: microbe, parasite or virus in culture; assay type: cell-based; details: 6 h
Protocol: as §4, §1

HaCaT cells [18] = test system: HaCaT cells
Protocol: as §5, §6, §7

PK15 cells [19] = test system: PK15 cells
Protocol: as §5, §6, §7

[20] = 10 μg/mL, 2% (v/v) erythrocytes in PBS pH 7.4, 37 °C 1 h, mean ± SD
[21] = 20 μg/mL, 2% erythrocytes in PBS pH 7.4, 37 °C 1 h
[22] = 40 μg/mL, 2% erythrocytes in PBS pH 7.4, 37 °C 1 h
[23] = 80 μg/mL, 2% erythrocytes in PBS pH 7.4, 37 °C 1 h

Protocol for PK15 and HaCaT cells: as §5, §6, §7

Substance | minimum inhibitory concentration, range over strains [2] [µM] | MICs, range over all bacterial species in the test panel [3] [µg/mL] | Minimal inhibitory concentration, Streptococcus dysgalactiae [4] | Minimal inhibitory concentration, Bacillus cereus [5] | Minimal inhibitory concentration, Streptococcus agalactiae [6] | Minimal inhibitory concentration, Staphylococcus aureus [7] | Minimal inhibitory concentration, Streptococcus equi subsp. zooepidemicus [8] | Minimal inhibitory concentration, Enterococcus faecalis [9] | Minimal inhibitory concentration, Pseudomonas aeruginosa [10] | Cell viability ± SD, PK15 (PK15 cells [11]; 64 μg/mL peptide) [%] | Cell viability ± SD, PK15 (PK15 cells [11]; 160 μg/mL peptide) [%] | antibacterial activity after incubation with serum (E. coli (ATCC 25922) [12]) | Cell viability ± SD, HaCaT (HaCaT cells [13]; 64 μg/mL peptide) [%] | Cell viability ± SD, HaCaT (HaCaT cells [13]; 160 μg/mL peptide) [%] | Minimal inhibitory concentration, Staphylococcus chromogenes [14] | Minimal inhibitory concentration, Glutamicibacter halophytocola [15] | Minimal inhibitory concentration, Corynebacterium simulans (Corynebacterium simulans) | Minimal inhibitory concentration, Streptococcus uberis (Streptococcus uberis) | Minimal inhibitory concentration, Staphylococcus epidermidis [16] | Minimal inhibitory concentration, Staphylococcus xylosus (Staphylococcus xylosus) | also measured
LNPLIKAGIFILKHRRPIGRGIEITGRGIKKFFSK [ML-CATH] | 0.2 to 10.3 | 2 to 42 | 14 (3.5) μg/mL | 3 (0.8) μg/mL | 8 (2.0) μg/mL | 2 (0.5) μg/mL | 9 (2.3) μg/mL | 5 (1.3) μg/mL | 42 (10.6) μg/mL | 96.2 ± 0.4 | 38.0 ± 2.2 | remained unaffected under all the tested conditions | 99.7 ± 0.9 | 98.0 ± 1.5 | 2 (0.5) μg/mL | 2 (0.5) μg/mL | 1 (0.3) μg/mL | 3 (0.8) μg/mL | 2 (0.5) μg/mL | 2 (0.5) μg/mL | MIC against E. coli in more acidic conditions (E. coli (ATCC 25922) [1]; ATCC 25922, pH 5): 2 µg/mL; cell viability of PK15 and HaCaT (PK15 and HaCaT cells): 91.1 ± 1.8% to 100.6 ± 0.4; MICs, range over field isolates [17]: 0.8 to 5 µg/mL; Haemolytic activity against bovine erythrocytes (bovine erythrocytes; [20]): 5.8 ± 0.4%; Haemolytic activity against bovine erythrocytes (bovine erythrocytes; [21]): 6.4 ± 0.8%; Haemolytic activity against bovine erythrocytes (bovine erythrocytes; [22]): 7.0 ± 0.8%; Haemolytic activity against bovine erythrocytes (bovine erythrocytes; [23]): 7.7 ± 0.2%; Haemolytic activity against bovine erythrocytes (bovine erythrocytes; 160 μg/mL, 2% erythrocytes in PBS pH 7.4, 37 °C 1 h): 11.8 ± 4.5%
ILGPALRIGGRIAGRIAGKLIGDAINRHRERNRQRRG [PD-CATH] | 0.2 to 10.3 | 2 to 42 | 18 (4.4) μg/mL | 6 (1.5) μg/mL | 8 (2.0) μg/mL | 3 (0.7) μg/mL | 17 (4.2) μg/mL | 6 (1.5) μg/mL | 42 (10.3) μg/mL | 43.6 ± 1.7 | 7.4 ± 0.2 | remained unaffected under all the tested conditions | 100.2 ± 0.2 | 11.4 ± 0.5 | 4 (1.0) μg/mL | 1 µg/mL | 1 µg/mL | 5 (1.2) μg/mL | 3 (0.7) μg/mL | 3 (0.7) μg/mL | MICs, range over field isolates [17]: 0.8 to 5 µg/mL; Haemolytic activity against bovine erythrocytes (bovine erythrocytes; [20]): 0.4 ± 0.2%; Haemolytic activity against bovine erythrocytes (bovine erythrocytes; [21]): 0.7 ± 0.4%; Haemolytic activity against bovine erythrocytes (bovine erythrocytes; [22]): 2.9 ± 0.2%; Haemolytic activity against bovine erythrocytes (bovine erythrocytes; [23]): 3.5 ± 0.2%
RVRRFWPLVPVAINTVAAGINLYKAIRRK [cc-CATH3] | 0.2 to 10.3 | 2 to 42 | 7 (2.0) μg/mL | 4 (1.28) μg/mL | 4 (1.28) μg/mL | 2 (0.6) μg/mL | 5 (1.5) μg/mL | 5 (1.5) μg/mL | 4 (1.28) μg/mL | 91.1 ± 1.8 | 32.7 ± 3.5 | significantly affected in concentrations lower than 3 × MIC | 100.6 ± 0.4 | 90.1 ± 4.8 | 3 (0.9) μg/mL | 2 (0.6) μg/mL | 0.8 (0.2) μg/mL | 4 (1.2) μg/mL | 2 (0.6) μg/mL | 2 (0.6) μg/mL | Minimal inhibitory concentration against E. coli, 150 mM NaCl (E. coli (ATCC 25922) [1]; ATCC 25922): 1.6 µM; cell viability of PK15 and HaCaT (PK15 and HaCaT cells): 91.1 ± 1.8% to 100.6 ± 0.4; Minimal inhibitory concentration, Aeromonas hydrophila (Aeromonas hydrophila): > 160 (47.4) μg/mL; MICs, range over field isolates [17]: 0.8 to 5 µg/mL; Haemolytic activity against bovine erythrocytes (bovine erythrocytes; [20]): 0.0 ± 0.1%; Haemolytic activity against bovine erythrocytes (bovine erythrocytes; [21]): 0.0 ± 0.1%; Haemolytic activity against bovine erythrocytes (bovine erythrocytes; [22]): 0.4 ± 0.2%; Haemolytic activity against bovine erythrocytes (bovine erythrocytes; [23]): 0.8 ± 0.1%
Triton X-100 [Triton X-100 (1%)] |  |  |  |  |  |  |  |  |  |  |  |  |  |  |  |  |  |  |  |  | Cell viability ± SD, HaCaT (HaCaT cells [18]): 13.0 ± 0.4%; Cell viability ± SD, PK15 (PK15 cells [19]): 13.3 ± 0.1%
